Reference: patent EP2689855B1, “Modified micronization device and use thereof” (Oekomineral AG, priority 2012, dated 2014)
In brackets after ≈: the same amount, converted by molar mass.

Key:
Assay type in all cases: physicochemical
[1] = Water solubility measurement of micronized Pterostilbene; conditions: thermodynamic from solid
Experimental: 1.00 kg of Pterostilbene (98% purity, Organic Herb, China) 50 µm of crystalline particles as model substance were subjected to micronization from present invention with additional maintaining of low temperature (20 °C) of substance via slow liquid nitrogen stream flow addition through neck feeder. In this preparation discs with blades in the shape of cubes and extruded triangles were used (Figure 7) , according to the present invention.
Such prepared samples of micronized Pterostilbene were subjected to particles size analyses and water solubility measurement.

[2] = Amorphous content / crystalline disorder by isothermal calorimetry (IC TAM 3); conditions: ursolic acid
Experimental: (§1) 1 kg of each sample of ursolic acid (98% purity, Sigma Aldrich) of an average particle size of 30 µm was micronized five times in devices having different hitting elements. The discs were cooled through a feeder opening with liquid nitrogen spraying to avoid overheating of the heat-sensitive substance.
The micronized samples were analyzed for particle size (Malvern MasterSizer 2000), while the extent of crystalline disorder of particles was quantified with isothermal calorimetry (IC TAM 3, TA instruments, USA). Data was recorded with proprietary software Digitam 4.2.

[3] = Particle size analysis (Malvern MasterSizer 2000) of micronized samples; conditions: ursolic acid
Description: The influence of the shape of the blades on the efficiency of the micronization has been studied by the use of the micronization device shown in Figures 1 and 2 from the prior art of the following technical characteristics: • (i) diameter of discs (Ø) of micronizer was 370 mm; • (ii) number of layers of hitting elements (blades) on the discs was 3 on primary and 2 on secondary disc; • (iii) number of blades on each of wreaths of discs was 20/16 (outer/inner wreath) from one side; and 18/16 (outer/inner wreath) from the other side of the micronizer; • (iv) the rotation velocity was 10000 rpm;
1 kg of each sample of same zeolite clinoptilolite was micronized by using the device according to the prior art and three different hitting elements as depicted in figures 5, 6 and 8. The disintegrators are characterized by the following data: • 1. Plates formed according to US4406409 A (Figure 5; Micronization-1); • 2. Slightly curved and indented plates according to HR990263 A2 (Figure 6; Micronizationt-2); and • 3. The hitting elements according to the present invention (Figure 8; Micronization-3) […]
as §1
The micronized samples were analyzed for particle size (Malvern MasterSizer 2000), while the extent of crystalline disorder of particles was quantified with isothermal calorimetry (IC TAM 3, TA instruments, USA). Data was recorded with proprietary software Digitam 4.2. […]

Work on COc1cc(/C=C/c2ccc(O)cc2)cc(OC)c1 [Pterostilbene] yielded a solubility ([1]; after seven repeated processes of micronization, blades of present invention (Figure 7)) of 128 µg/mL (≈ 499 µM) and a solubility ([1]; before micronization) of 23 µg/mL (≈ 89.7 µM).
With C[C@H]1[C@H](C)CC[C@]2(C(=O)O)CC[C@]3(C)C(=CC[C@@H]4[C@@]5(C)CC[C@H](O)C(C)(C)[C@@H]5CC[C@]43C)[C@H]12 [ursolic acid] the “Amorphous Content (%, w/w)” value ([2]; MICRONIZATION-1, five repeated micronization procedures) was 3.68 %, w/w, the “Amorphous Content (%, w/w)” value ([2]; MICRONIZATION-2, five repeated micronization procedures) was 6.12 %, w/w and the “Amorphous Content (%, w/w)” value ([2]; MICRONIZATION-3, five repeated micronization procedures) was 19.23 %, w/w. For the same compound, the “Volume (%) under” value ([3]; Particles size 0.105 µm, MICRONIZATION-1, five repeated micronization procedures) was 0.00%, the “Volume (%) under” value ([3]; Particles size 0.105 µm, MICRONIZATION-2, five repeated micronization procedures) was 0.00% and the “Volume (%) under” value ([3]; Particles size 0.105 µm, MICRONIZATION-3, five repeated micronization procedures) was 0.00%. The “Volume (%) under” value ([3]; Particles size 0.120 µm, MICRONIZATION-1, five repeated micronization procedures) was 0.00%, the “Volume (%) under” value ([3]; Particles size 0.120 µm, MICRONIZATION-2, five repeated micronization procedures) was 0.00% and the “Volume (%) under” value ([3]; Particles size 0.120 µm, MICRONIZATION-3, five repeated micronization procedures) was 0.00%. The “Volume (%) under” value ([3]; Particles size 0.138 µm, MICRONIZATION-1, five repeated micronization procedures) was 0.00%, the “Volume (%) under” value ([3]; Particles size 0.138 µm, MICRONIZATION-2, five repeated micronization procedures) was 0.00% and the “Volume (%) under” value ([3]; Particles size 0.138 µm, MICRONIZATION-3, five repeated micronization procedures) was 0.00%. The “Volume (%) under” value ([3]; Particles size 0.158 µm, MICRONIZATION-1, five repeated micronization procedures) was 0.00%, the “Volume (%) under” value ([3]; Particles size 0.158 µm, MICRONIZATION-2, five repeated micronization procedures) was 0.00% and the “Volume (%) under” value ([3]; Particles size 0.158 µm, MICRONIZATION-3, five repeated micronization procedures) was 0.28%. For the same compound, the “Volume (%) under” value ([3]; Particles size 0.182 µm, MICRONIZATION-1, five repeated micronization procedures) was 0.00%, the “Volume (%) under” value ([3]; Particles size 0.182 µm, MICRONIZATION-2, five repeated micronization procedures) was 0.00% and the “Volume (%) under” value ([3]; Particles size 0.182 µm, MICRONIZATION-3, five repeated micronization procedures) was 1.38%. For the same compound, the “Volume (%) under” value ([3]; Particles size 0.209 µm, MICRONIZATION-1, five repeated micronization procedures) was 0.00%, the “Volume (%) under” value ([3]; Particles size 0.209 µm, MICRONIZATION-2, five repeated micronization procedures) was 0.12% and the “Volume (%) under” value ([3]; Particles size 0.209 µm, MICRONIZATION-3, five repeated micronization procedures) was 2.73%. The “Volume (%) under” value ([3]; Particles size 0.240 µm, MICRONIZATION-1, five repeated micronization procedures) was 0.00%, the “Volume (%) under” value ([3]; Particles size 0.240 µm, MICRONIZATION-2, five repeated micronization procedures) was 0.46% and the “Volume (%) under” value ([3]; Particles size 0.240 µm, MICRONIZATION-3, five repeated micronization procedures) was 3.69%. The “Volume (%) under” value ([3]; Particles size 0.275 µm, MICRONIZATION-1, five repeated micronization procedures) was 0.01%, the “Volume (%) under” value ([3]; Particles size 0.275 µm, MICRONIZATION-2, five repeated micronization procedures) was 1.19% and the “Volume (%) under” value ([3]; Particles size 0.275 µm, MICRONIZATION-3, five repeated micronization procedures) was 5.39%. The “Volume (%) under” value ([3]; Particles size 0.316 µm, MICRONIZATION-1, five repeated micronization procedures) was 0.06%, the “Volume (%) under” value ([3]; Particles size 0.316 µm, MICRONIZATION-2, five repeated micronization procedures) was 1.97% and the “Volume (%) under” value ([3]; Particles size 0.316 µm, MICRONIZATION-3, five repeated micronization procedures) was 8.42%. The “Volume (%) under” value ([3]; Particles size 0.363 µm, MICRONIZATION-1, five repeated micronization procedures) was 0.23%, the “Volume (%) under” value ([3]; Particles size 0.363 µm, MICRONIZATION-2, five repeated micronization procedures) was 2.83% and the “Volume (%) under” value ([3]; Particles size 0.363 µm, MICRONIZATION-3, five repeated micronization procedures) was 11.76%. For the same compound, the “Volume (%) under” value ([3]; Particles size 0.417 µm, MICRONIZATION-1, five repeated micronization procedures) was 0.50%, the “Volume (%) under” value ([3]; Particles size 0.417 µm, MICRONIZATION-2, five repeated micronization procedures) was 4.09% and the “Volume (%) under” value ([3]; Particles size 0.417 µm, MICRONIZATION-3, five repeated micronization procedures) was 14.01%. For the same compound, the “Volume (%) under” value ([3]; Particles size 0.479 µm, MICRONIZATION-1, five repeated micronization procedures) was 0.87%, the “Volume (%) under” value ([3]; Particles size 0.479 µm, MICRONIZATION-2, five repeated micronization procedures) was 5.36% and the “Volume (%) under” value ([3]; Particles size 0.479 µm, MICRONIZATION-3, five repeated micronization procedures) was 19.32%. The “Volume (%) under” value ([3]; Particles size 0.550 µm, MICRONIZATION-1, five repeated micronization procedures) was 1.12%, the “Volume (%) under” value ([3]; Particles size 0.550 µm, MICRONIZATION-2, five repeated micronization procedures) was 7.01% and the “Volume (%) under” value ([3]; Particles size 0.550 µm, MICRONIZATION-3, five repeated micronization procedures) was 25.19%. The “Volume (%) under” value ([3]; Particles size 0.631 µm, MICRONIZATION-1, five repeated micronization procedures) was 2.02%, the “Volume (%) under” value ([3]; Particles size 0.631 µm, MICRONIZATION-2, five repeated micronization procedures) was 9.13% and the “Volume (%) under” value ([3]; Particles size 0.631 µm, MICRONIZATION-3, five repeated micronization procedures) was 31.12%. For the same compound, the “Volume (%) under” value ([3]; Particles size 0.724 µm, MICRONIZATION-1, five repeated micronization procedures) was 3.29%, the “Volume (%) under” value ([3]; Particles size 0.724 µm, MICRONIZATION-2, five repeated micronization procedures) was 11.51% and the “Volume (%) under” value ([3]; Particles size 0.724 µm, MICRONIZATION-3, five repeated micronization procedures) was 36.14%. For the same compound, the “Volume (%) under” value ([3]; Particles size 0.832 µm, MICRONIZATION-1, five repeated micronization procedures) was 4.78%, the “Volume (%) under” value ([3]; Particles size 0.832 µm, MICRONIZATION-2, five repeated micronization procedures) was 13.61% and the “Volume (%) under” value ([3]; Particles size 0.832 µm, MICRONIZATION-3, five repeated micronization procedures) was 42.72%. For the same compound, the “Volume (%) under” value ([3]; Particles size 0.955 µm, MICRONIZATION-1, five repeated micronization procedures) was 6.12%, the “Volume (%) under” value ([3]; Particles size 0.955 µm, MICRONIZATION-2, five repeated micronization procedures) was 16.29% and the “Volume (%) under” value ([3]; Particles size 0.955 µm, MICRONIZATION-3, five repeated micronization procedures) was 50.02%. For the same compound, the “Volume (%) under” value ([3]; Particles size 1.096 µm, MICRONIZATION-1, five repeated micronization procedures) was 8.44%, the “Volume (%) under” value ([3]; Particles size 1.096 µm, MICRONIZATION-2, five repeated micronization procedures) was 19.17% and the “Volume (%) under” value ([3]; Particles size 1.096 µm, MICRONIZATION-3, five repeated micronization procedures) was 59.80%.
